Experiments:
Type in all cases: cell-based
[1] = tested on: Desulfovibrio longus ATCC 51456; experiment: Biocidal efficacy against SRB, 2 hour treatment time
Experimental: (§1) The synergy indexes reported in the following examples are calculated using the following equation: Synergy Index=Ca/CA+Cb/CB
(§2) Ca: Concentration of biocide A required to achieve a certain level of bacterial kill when used in combination with B
(§3) CA: Concentration of biocide A required to achieve a certain level of bacterial kill when used alone
(§4) Cb: Concentration of biocide B required to achieve a certain level of bacterial kill when used in combination with A
(§5) CB: Concentration of biocide B required to achieve a certain level of bacterial kill when used alone.
(§6) A synergy index (SI) of 1 indicates additivity, a synergy index of less than 1 indicates synergy, and a synergy index greater than 1 indicates antagonism.
(§7) Inside an anaerobic chamber (Bactron anaerobic chamber), a deoxygenated sterile salt solution (3.1183 g of NaCl, 1.3082 mg of NaHCO3, 47.70 mg of KCl, 72.00 mg of CaCl2, 54.49 mg of MgSO4, 172.28 mg of Na2SO4, 43.92 mg of Na2CO3 in 1 L water) is inoculated with Desulfovibrio longus ATCC 51456 to a final bacterial concentration of 10^6 to 10^7 CFU/mL.

[2] = tested on: Pseudomonas aeruginosa ATCC 10145 and Staphylococcus aureus ATCC 6538; experiment: Biocidal efficacy against aerobic bacteria, 2 hr, minimum concentration for complete bacterial kill; settings: 37° C.
Experimental: as §1, §2, §3, §4, §5, §6
(§8) Synergy Index is then calculated.

[3] = tested on: Desulfovibrio longus ATCC 51456; experiment: Biocidal efficacy against anaerobic bacteria, 24 hours, minimum concentration for 99.999% bacterial reduction; settings: 35° C.
Experimental: as §1, §2, §3, §4, §5, §6, §7

[4] = tested on: Biofilms of Desulfovibrio longus ATCC 51456; experiment: Biofilm removal, Calgary Biofilm Device, crystal violet staining; settings: 2 hours treatment
Experimental: Biofilms of Desulfovibrio longus ATCC 51456 are grown in a Calgary Biofilm Device (Innovotech, Alberta, Canada) at 35° C. and under anaerobic conditions for 72 hours with shaking (125 rpm). Modified Baar's Medium (ATCC #1249 Broth) is used as culture medium and the medium is changed after 48 hrs of incubation. […] After biocide treatment, the pegs are rinsed again with deoxygenated sterile 0.85% NaCl solution and then the total biofilm left on each peg is measured according to the following description. The biofilm is fixed with 99% methanol and, after air drying, the pegs are stained with 2% (w/v) crystal violet and washed with tap water. The pegs are then air dried and the crystal violet bound to the biofilm is extracted with 33% glacial acetic acid. The total remaining biofilm is determined by the optical density (OD) of the extracted solution at 580 nm.

[5] = tested on: Pseudomonas aeruginosa ATCC 10145 and Staphylococcus aureus ATCC 6538; experiment: Biocidal efficacy against aerobic bacteria, 24 hours, minimum concentration for 99.9% bacterial kill; settings: 37° C.
Experimental: as §1, §2, §3, §4, §5, §6, §8

[6] = PHMB part of minimum concentration
[7] = THPS part of minimum concentration

With “tetrakis (hydroxymethyl) phosphonium sulfate [THPS]” the “Concentration (ppm a.i.) for complete SRB kill, PHMB” value [1, 6] was 0.0 ppm a.i, the “Concentration (ppm a.i.) for complete SRB kill, THPS” value [1, 7] was 22.2 ppm a.i and the “Concentration (ppm a.i.) for aerobic bacteria kill, PHMB” value ([2]; PHMB part of minimum concentration for complete bacterial kill) was 0 ppm a.i. For the same substance, the “Concentration (ppm a.i.) for aerobic bacteria kill, THPS” value ([2]; THPS part of minimum concentration for complete bacterial kill) was 50 ppm a.i, the “Concentration (ppm a.i.) for anaerobic bacteria kill, PHMB” value ([3]; PHMB part of minimum tested concentration for 99.999% bacterial reduction) was 0.0 ppm a.i and the “Concentration (ppm a.i.) for anaerobic bacteria kill, THPS” value ([3]; THPS part of minimum tested concentration for 99.999% bacterial reduction) was 8.8 ppm a.i. The “Remaining biofilm, OD580 (optical density of biofilm captured crystal violet)” value ([4]; 50 ppm active) was 0.59, the “Remaining biofilm, OD580 (optical density of biofilm captured crystal violet)” value ([4]; 200 ppm active) was 1.03 and the “Concentration (ppm a.i.) for 99.9% bacterial kill, PHMB” value [5, 6] was 0.0 ppm a.i. The “Concentration (ppm a.i.) for 99.9% bacterial kill, THPS” value [5, 7] was 19.8 ppm a.i.
